Results on seven compounds are retold here after patent US11603349B2, “Anti-fibrotic compounds” (Certa Therapeutics Pty Ltd, priority 2017, dated 2023).

Counter-ions that a name gives are not always drawn.

One data set can be described thus: in vitro. The conditions noted are these: rat, CC50 (μM).
Data set [1] concerns TGF-β induced [14C]-proline incorporation in rat mesangial cells. Briefly: [14C]-proline incorporation assay (collagen biosynthesis). The conditions noted are these: Rattus norvegicus, Mesangial cell, 44 h, inhibition of TGF-β1 (1 ng/ml) induced [14C]-proline incorporation, IRMC cells. Type of data set: cell-based.
Data set [2] can be described thus: Discrete oral pharmacokinetic studies in male Sprague Dawley rats. It counts as in vivo, rat. The conditions noted are these: male SD rats. The method, then: Discrete oral pharmacokinetic studies were performed for example compounds 116, 107, and 102.
116: 2 mg/kg and 20 mg/kg of 116 were administered as single doses to male Sprague Dawley (SD) rats. 75 mg/kg and 350 mg/kg of 116 were administered daily (5 days) to male Sprague Dawley (SD) rats.
107: 2 mg/kg and 20 mg/kg of 107 were administered as single doses to male Sprague Dawley (SD) rats. 75 mg/kg and 350 mg/kg of 107 were administered daily (5 days) to male Sprague Dawley (SD) rats.
102: 2 mg/kg and 20 mg/kg of 102 were administered as single doses to male Sprague Dawley (SD) rats. 75 mg/kg and 350 mg/kg of 102 were administered daily (5 days) to male Sprague Dawley (SD) rats. […] An increase in plasma concentrations were observed between the 75 and 350 mg/kg/day dosing groups.

Data set [3] concerns rat mesangial cells (1097/IRMC cells). Briefly: MTS tetrazolium reduction cell viability assay. The settings on record: TGF-β1 stimulated IRMC cells, vs 1% DMSO vehicle. (In general: Tetrazolium assays rely on reduction of a dye to a coloured formazan, in cell work by metabolically active cells.)
Data set [4] is described as follows: MTS tetrazolium reduction cell viability assay. The settings on record: rat, rat mesangial cells (1097/IRMC cells), TGF-β1 stimulated, CC50 (μM), vs 1% DMSO vehicle.

Regarding `COc1ccc(/C=C/C(=O)Nc2ccccc2C(=O)O)cc1C1=CCN(C)CC1` [Example 104, (E)-2-(3-(4-methoxy-3-(1-methyl-1,2,3,6-tetrahydropyridin-4-yl)phenyl)acrylamido)benzoic acid trifluoroacetic acid salt], in “in vitro”, the CC50 at 48 h was determined as 281 µM. Moreover, in data set [1], the IC50 stood at 41.4 µM.

On to `COc1ccc(/C=C/C(=O)Nc2ccccc2C(=O)O)c(OCCN(C)C)c1OC` [Example 116, (E)-2-(3-(2-(2-(dimethylamino)ethoxy)-3,4-dimethoxyphenyl)acrylamido)benzoic Acid], for which the “coverage of IC50 relative to a 200 mg/kg/day regime of FT011” value in data set [2] (75 mg/kg) and in data set [2] (350 mg/kg) was “superior” in each case. For the same compound, the “adverse compound related effects” value in data set [2] (2 and 20 mg/kg single dose, 75 and 350 mg/kg daily (5 days)) was “No adverse compound related effects were observed”. In addition, the “change in plasma concentrations between the 75 and 350 mg/kg/day dosing groups” value in data set [2] (after the initial dose) is on record as “little to no increase”. For the same compound, in data set [2] (daily, throughout the 5-day study), the “trough concentrations, 350 mg/kg/day dosing group” value is given as “lower than expected”. Besides, the CC50 in data set [3] was above 300 µM. Also, the CC50 at 48 h in data set [4] was determined as 294 µM.

In the data set “in vitro”, `COc1cc(/C=C/C(=O)Nc2ccccc2-n2cnc(C)n2)ccc1C1=CCNCC1` [Example 140, (E)-3-(3-methoxy-4-(1,2,3,6-tetrahydropyridin-4-yl)phenyl)-N-(2-(3-methyl-1H-1,2,4-triazol-l-yl)phenyl)acrylamide trifluoroacetic acid salt] had a CC50 at 48 h of 36.1 µM. In data set [1], this compound showed an IC50 of 8.47 µM.

On to `COc1cc(/C=C/C(=O)n2nc(O)c3ccccc32)ccc1C1=CCNCC1` [Example 142, (E)-1-(3-hydroxy-1H-indazol-1-yl)-3-(3-methoxy-4-(1,2,3,6-tetrahydropyridin-4-yl)phenyl)prop-2-en-1-one], for which the CC50 at 48 h in the data set “in vitro” is above 300 µM. For the same compound, the IC50 in data set [1] worked out at 31.7 µM.

As to `COc1cc(C2CC2C(=O)Nc2ccc(C#N)cc2)ccc1C1=CCNCC1` (stereo not shown) [Example 121, N-(4-cyanophenyl)-2-(3-methoxy-4-(1,2,3,6-tetrahydropyridin-4-yl)phenyl)cyclopropane Carboxamide], the CC50 at 48 h in “in vitro” stood at 8.47 µM. In data set [1], the midpoint of inhibition, the IC50, lay at 3.79 µM.

As to `COc1cc(/C=C/C(=O)Nc2ccccc2C(=O)O)ccc1C1=CCN(C)CC1` [Example 99, (E)-2-(3-(3-methoxy-4-(1-methyl-1,2,3,6-tetrahydropyridin-4-yl)phenyl)acrylamido)benzoic Acid], the CC50 at 48 h in “in vitro” is above 300 µM. The same compound had a half-inhibitory concentration (IC50) in data set [1] of 34.7 µM.

Consider `COc1cc(C2CC2C(=O)Nc2ccccc2-n2cnc(C)n2)ccc1C1=CCNCC1` (stereo not shown) [Example 144, 2-(3-methoxy-4-(1,2,3,6-tetrahydropyridin-4-yl)phenyl)-N-(2-(3-methyl-1H-1,2,4-triazol-1-yl)phenyl)cyclopropanecarboxamide trifluoroacetic acid salt], for which the CC50 at 48 h in the data set “in vitro” is 81 µM. In addition, the IC50 in data set [1] is 20.9 µM.

A word on the IC50: it is the midpoint of a concentration-inhibition curve. Higher therefore signals lower potency.
